# Measured values reported in patent publication US4434159A, “Pharmaceutical composition for intrarectal administration, and suppository prepared therefrom” (Teijin Limited, priority 1980, dated 1984).
# Tested on: blood glucose level
# Experiment: Decrease in blood glucose level after administration of insulin suppositories to rabbits
# Assay type: in vivo
# Details: 0.32 u/kg intramuscularly administered
# Experimental: 500 mg of the dispersion was filled into a gelatin capsule for suppositories to form a gelatin capsule suppository. One capsule contained 9.6 units of insulin. In the same manner as above, insulin suppositories were prepared using the other absorption aids shown in Table 4 instead of ascorbic acid. The content (units) of insulin and the amounts of the absorption aids and the base (fractionated coconut oil) were as shown in Table 4. […] Each time, 0.5 ml of the blood was withdrawn from the ear vein. The glucose level of the blood was measured by the glucose oxidase method. Table 4 summarizes the decrease (%) of the blood glucose level from that before the administration.
substance,measurement,setting,value
"Insulin: porcine insulin, intramuscularly administered as comparison",Decrease (%) in blood glucose level from that before administration,30 minutes,13.7%
same,Decrease (%) in blood glucose level from that before administration,1 hour,32.6%
same,Decrease (%) in blood glucose level from that before administration,2 hours,36.2%
same,Decrease (%) in blood glucose level from that before administration,3 hours,15.2%
